Assay results taken from paper PMC12889028, “Discovery and biological evaluation of novel N-aryl-N′-methylbenzodrazides against Schistosoma japonicum in vitro and in vivo” (Microbiology Spectrum, 2025).
Like-named read-outs stand apart in the source and are kept apart here.

System: adult worms of S. japonicum (Chinese strain)
Assay: microbe, parasite or virus in culture
Details: for Mortality (%) 72 h: 100 μM, adult worms in vitro; for mortality at 100 µM: Schistosoma japonicum
Procedure: S. japonicum cercariae (Chinese strain) were acquired from infected Oncomelania hupensis snails (Wuxi Insect Vector Biology Co., Ltd., China) ([28]). ICR mice (6–8 weeks, 22–25 g; Hunan SJA Laboratory Animal Co., Ltd., China) were percutaneously infected via abdominal exposure to 60 ± 5 cercariae. Adult schistosomes were perfused from the hepatic portal system at 35 dpi using a modified Duvall and DeWitt method ([29]). Animals were housed under controlled conditions (22°C ± 1°C, 12 h light/dark cycle) with ad libitum access to feed and water.
Adult S. japonicum worms isolated from ICR mice were maintained in sterile culture medium (2.0 mL) comprising 77% RPMI 1640 (Lanzhou Bailing Biotech Co., Ltd.; pH 7.5, HEPES-buffered), 20% heat-inactivated fetal bovine serum (Lanzhou Minhai Bio-Engineering Co., Ltd.), and 3% penicillin-streptomycin (100×; 10,000 U/mL penicillin, 10,000 μg/mL streptomycin; New Cell & Molecular Biotech Co., Ltd., China). Incubation was performed at 37°C under 5% CO2. Test compounds were dissolved in DMSO as 0.1 M stock solutions; 2.0 μL aliquots were added to worm-containing media (final concentration: 100 μM in 0.1% DMSO). Negative controls received equivalent volumes of vehicle (0.1% DMSO in RPMI 1640). Parasite viability (motor activity, tegumental integrity, survival) was assessed every 12 h for 72 h using an Olympus CKX53 inverted microscope (n ≥ 3 independent replicates).

[1] = 24 h, read-out: Mortality (%) 24 h, 100 μM, 24 h, adult worms in vitro
[2] = 36 h, read-out: Mortality (%) 36 h, 100 μM, 36 h, adult worms in vitro
[3] = 48 h, read-out: Mortality (%) 48 h, 100 μM, 48 h, adult worms in vitro
[4] = 72 h, read-out: Mortality (%) 72 h, 100 μM, 72 h, adult worms in vitro

SMILES	Mortality (%) 72 h (72 h) [%]	mortality at 100 µM [1] [%]	mortality at 100 µM [2] [%]	mortality at 100 µM [3] [%]	mortality at 100 µM [4] [%]
COc1ccc(C(=O)NN(C)c2ccc(Cl)c(Cl)c2)cc1 [Compound 16]	100	0	0	65	> 90
CN(NC(=O)c1ccc(Cl)c(Cl)c1)c1ccccc1Cl [Compound 12]	–	0	0	0	0
CN(NC(=O)c1ccc(Cl)c(Cl)c1)c1cccc(Br)c1 [Compound 9]	85	0	0	15	> 80
CN(NC(=O)c1ccc(F)c(F)c1)c1ccc(Cl)c(Cl)c1 [Compound 24]	90	0	5	45	> 90
COc1ccc(N(C)NC(=O)c2ccc(Br)cc2)cc1 [Compound 27]	–	0	0	0	0
CN(NC(=O)c1ccc(Br)cc1)c1ccccc1Cl [Compound 39]	–	0	0	10	20
CN(NC(=O)c1ccc(Br)cc1)c1cccc(Cl)c1 [Compound 34]	–	0	0	0	90
COc1ccc(N(C)NC(=O)c2ccc(Cl)c(Cl)c2)cc1 [Compound 2]	–	0	0	0	0
CN(NC(=O)c1ccc(Br)cc1)c1ccc(Cl)cc1 [Compound 29]	–	0	0	0	35
CN(NC(=O)c1ccc(Br)cc1)c1cccc(C(F)(F)F)c1 [Compound 36]	–	0	0	10	80
Cc1ccc(C(=O)NN(C)c2ccc(Cl)c(Cl)c2)cc1 [Compound 15]	–	0	20	35	65
Cc1cccc(C(=O)NN(C)c2ccc(Cl)c(Cl)c2)c1 [Compound 22]	–	0	0	0	70
CN(NC(=O)c1ccc(Br)cc1)c1ccccc1F [Compound 38]	–	0	0	10	10
CN(NC(=O)c1ccc([N+](=O)[O-])cc1)c1ccc(Cl)c(Cl)c1 [Compound 21]	–	0	0	30	65
Cc1ccc(N(C)NC(=O)c2ccc(Cl)c(Cl)c2)cc1 [Compound 1]	100	0	5	60	> 80
CN(NC(=O)c1ccc(Br)cc1)c1cccc(Br)c1 [Compound 35]	–	0	0	30	60
CN(NC(=O)c1ccc(Cl)c(Cl)c1)c1ccc(C#N)cc1 [Compound 6]	–	0	0	0	20
Cc1cccc(N(C)NC(=O)c2ccc(Br)cc2)c1 [Compound 33]	–	0	15	40	70
